11 molecules from patent publication US10300051B2, “Cyclopropylamines as LSD1 inhibitors” (priority 2014, dated 2019) can be followed below.

Structures are written as SMILES.

The target in the assay is LSD-1 enzyme (Homo sapiens (Human), UniProt O60341). The class given is biochemical. The settings on record: 1 nM LSD-1 enzyme, 1 hour preincubation at 25° C., Biotin-labeled Histone H3 peptide substrate. On the procedure: Example A: LSD1 Histone Demethylase Biochemical Assay
LANCE LSD1/KDM1A demethylase assay—10 μL of 1 nM LSD-1 enzyme (ENZO BML-SE544-0050) in the assay buffer (50 mM Tris, pH 7.5, 0.01% Tween-20, 25 mM NaCl, 5 mM DTT) were preincubated for 1 hour at 25° C. with 0.8 μL compound/DMSO dotted in black 384 well polystyrene plates. […] Reactions were stopped by addition of 10 μL 1× LANCE Detection Buffer (PerkinElmer CR97-100) supplemented with 1.5 nM Eu-anti-unmodified H3K4 Antibody (PerkinElmer TRF0404), and 225 nM LANCE Ultra Streptavidin (PerkinElmer TRF102) along with 0.9 mM Tranylcypromine-HCl (Millipore 616431). After stopping the reactions plates were incubated for 30 minutes and read on a PHERAstar FS plate reader (BMG Labtech).
Turning to `COCC1(CN[C@@H]2C[C@H]2c2ccccc2)CCN(CCC(=O)N(C)C)CC1` [Example 23, 3-[4-(methoxymethyl)-4-({[(1R,2S)-2-phenylcyclopropyl]amino}methyl)piperidin-1-yl]-N,N-dimethylpropanamide], the IC50 – broadly, the point on the concentration scale where inhibition reaches its midpoint – was below 100 nM. `O=C(O)c1cccc(CC2(CN[C@@H]3C[C@H]3c3ccccc3)CCN(Cc3cccnc3)CC2)c1` [Example 33, 3-{[4-({[(1R,2S)-2-phenylcyclopropyl]amino}methyl)-1-(pyridin-3-ylmethyl)piperidin-4-yl]methyl}benzoic Acid] gave an IC50 below 100 nM. The result for `CN(C)C(=O)CCN1CCC(CN[C@@H]2C[C@H]2c2ccccc2)(Cc2ccc(F)cc2)CC1` [Example 10, 3-[4-(4-fluorobenzyl)-4-({[(1R,2S)-2-phenylcyclopropyl]amino}methyl)piperidin-1-yl]-N,N-dimethylpropanamide] reads below 100 nM. The value for `Fc1ccc(CC2(CN[C@H]3C[C@@H]3c3ccccc3)CCNCC2)cc1` [Example 12, (1S,2R)—N-{[4-(4-fluorobenzyl)piperidin-4-yl]methyl}-2-phenylcyclopropanamine] was below 100 nM. The result for `N#CCC1(CN[C@@H]2C[C@H]2c2ccccc2)CCN(Cc2cccnc2)CC1` (relative stereo) [Example 7, [4-{[(trans-2-Phenylcyclopropyl)amino]methyl}-1-(pyridin-3-ylmethyl)piperidin-4-yl]acetonitrile] reads below 100 nM; that for `CN1CCC(CN[C@@H]2C[C@H]2c2ccccc2)(Cc2cccc(C(=O)O)c2)CC1` [Example 28, 3-{[1-methyl-4-({[(1R,2S)-2-phenylcyclopropyl]amino}methyl)piperidin-4-yl]methyl}benzoic Acid], below 100 nM; that for `O=C(O)CCN1CCC(CN[C@@H]2C[C@H]2c2ccccc2)(COc2cccc(F)c2)CC1` [Example 38, 3-[4-[(3-fluorophenoxy)methyl]-4-({[(1R,2S)-2-phenylcyclopropyl]amino}methyl)piperidin-1-yl]propanoic Acid], below 100 nM. In turn, `COc1cccc(CC2(CN[C@@H]3C[C@H]3c3ccccc3)CCN(CCC(=O)O)CC2)c1` [Example 59, 3-[4-(3-methoxybenzyl)-4-({[(1R,2S)-2-phenylcyclopropyl]amino}methyl)piperidin-1-yl]propanoic Acid] came in with an IC50 below 100 nM. The value for `COc1ccc(CC2(CN[C@@H]3C[C@H]3c3ccccc3)CCN(CCC(=O)O)CC2)cc1` [Example 55, 3-[4-(4-methoxybenzyl)-4-({[(1R,2S)-2-phenylcyclopropyl]amino}methyl)piperidin-1-yl]propanoic Acid] was below 100 nM; that for `COCC1(CN[C@@H]2C[C@H]2c2ccccc2)CCN(CC(C)(C)C(=O)O)CC1` [Example 48, 3-[4-(methoxymethyl)-4-({[(1R,2S)-2-phenylcyclopropyl]amino}methyl)piperidin-1-yl]-2,2-dimethylpropanoic Acid] was below 100 nM. The value for `O=C(O)CCN1CCC(CN[C@@H]2C[C@H]2c2ccccc2)(COc2ccc(F)cc2)CC1` [Example 39, 3-[4-[(4-fluorophenoxy)methyl]-4-({[(1R,2S)-2-phenylcyclopropyl]amino}methyl)piperidin-1-yl]propanoic Acid] was below 100 nM.
